“And” between values parts separate entries of the source, which are not always exact repeats. Equal values may be shown once. Inconclusive results are not listed.
Test system: BDF1 mice, colon carcinoma 38 sc, T/C %
Test: NCI In Vivo Anticancer Drug Screen. Data for tumor model Colon Carcinoma 38 (subcutaneous) in B6D2F1 (BDF1) mice
Conditions: endpoint: median tumor weight (est.), higher = larger tumour
In short: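 Mice with transplanted tumors are treated with compound or vehicle. Survival or tumor size is then measured in both groups. The ratio of treated to control gives the reported figure.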

[1] = dose: 25.0 mg/kg/injection, schedule: Q07DX002 (ip), vehicle: Klucel (hydroxypropylcellulose) (HPC)
[2] = dose: 50.0 mg/kg/injection, schedule: Q07DX002 (ip), vehicle: Klucel (hydroxypropylcellulose) (HPC)
[3] = dose: 200.0 mg/kg/injection, schedule: Q07DX002 (ip), vehicle: Klucel (hydroxypropylcellulose) (HPC)

CN(C)S(=O)(=O)CCNC(=O)N(CCCl)N=O
T/C (dose: 5.4 mg/kg/injection, schedule: Q07DX002 (oral), vehicle: saline): 108 % of control
T/C (dose: 7.5 mg/kg/injection, schedule: Q07DX002 (oral), vehicle: saline with Tween-80): 65 % of control
T/C (dose: 9.0 mg/kg/injection, schedule: Q07DX002 (oral), vehicle: saline): 106 % of control
T/C (dose: 15.0 mg/kg/injection, schedule: Q07DX002 (oral), vehicle: saline): 94 % of control
T/C (dose: 25.0 mg/kg/injection, schedule: Q07DX002 (oral), vehicle: saline): 18 % of control

C=C1C(=O)O[C@H]2/C=C(/C)C3=CC(=O)[C@@](C)(C[C@@H](OC(=O)/C(C)=C\C)C12)O3 (some centres not stated)
T/C (dose: 3.12 mg/kg/injection, schedule: Q07DX002 (ip), vehicle: Klucel (hydroxypropylcellulose) (HPC)): 63 % of control
T/C (dose: 6.25 mg/kg/injection, schedule: Q07DX002 (ip), vehicle: Klucel (hydroxypropylcellulose) (HPC)): 95 % of control
T/C (dose: 12.5 mg/kg/injection, schedule: Q07DX002 (ip), vehicle: Klucel (hydroxypropylcellulose) (HPC)): 58 % of control
T/C [1]: 79 % of control

[Cl][Mn][Cl]
T/C (dose: 3.0 mg/kg/injection, schedule: Q07DX002 (ip), vehicle: saline): 118 % of control
T/C (dose: 4.0 mg/kg/injection, schedule: Q07DX002 (ip), vehicle: saline): 97 % of control
T/C (dose: 6.0 mg/kg/injection, schedule: Q07DX002 (ip), vehicle: saline): 92 % of control
T/C (dose: 8.0 mg/kg/injection, schedule: Q07DX002 (ip), vehicle: saline): 81 % of control
T/C (dose: 12.0 mg/kg/injection, schedule: Q07DX002 (ip), vehicle: saline): 119 % of control
T/C (dose: 32.0 mg/kg/injection, schedule: Q07DX002 (ip), vehicle: saline): 95 % of control and 96 % of control
T/C (dose: 48.0 mg/kg/injection, schedule: Q07DX002 (ip), vehicle: saline): 119 % of control
T/C (dose: 64.0 mg/kg/injection, schedule: Q07DX002 (ip), vehicle: saline): 75 % of control
T/C (dose: 96.0 mg/kg/injection, schedule: Q07DX002 (ip), vehicle: saline): 115 % of control
T/C (dose: 128.0 mg/kg/injection, schedule: Q07DX002 (ip), vehicle: saline): 78 % of control

O=C/C(Cl)=C(/Cl)C(=O)O
T/C (dose: 5.0 mg/kg/injection, schedule: Q07DX002 (ip), vehicle: saline with Tween-80): 63 % of control
T/C (dose: 10.0 mg/kg/injection, schedule: Q07DX002 (ip), vehicle: saline with Tween-80): 113 % of control and 92 % of control

O=S(=O)(O)O
T/C [1]: 110 % of control
T/C [2]: 103 % of control
T/C (dose: 100.0 mg/kg/injection, schedule: Q07DX002 (ip), vehicle: Klucel (hydroxypropylcellulose) (HPC)): 78 % of control
T/C [3]: 112 % of control

CN(C)CCN1C(=O)c2cccc3cc(N)cc(c23)C1=O
T/C (dose: 2.0 mg/kg/injection, schedule: Q07DX002 (ip), vehicle: saline with Tween-80): 111 % of control
T/C (dose: 4.0 mg/kg/injection, schedule: Q07DX002 (ip), vehicle: saline with Tween-80): 97 % of control
T/C (dose: 8.0 mg/kg/injection, schedule: Q07DX002 (ip), vehicle: saline with Tween-80): 87 % of control and 88 % of control
T/C (dose: 16.0 mg/kg/injection, schedule: Q07DX002 (ip), vehicle: saline with Tween-80): 100 % of control
T/C (dose: 64.0 mg/kg/injection, schedule: Q07DX002 (ip), vehicle: saline with Tween-80): 55 % of control and 58 % of control

S=C(Nc1ccc(Cl)c(Cl)c1)N1c2ccccc2-n2cccc2C1c1cccnc1 (configuration not stated)
T/C [2]: 83 % of control
T/C [3]: 113 % of control and 95 % of control
T/C (dose: 400.0 mg/kg/injection, schedule: Q07DX002 (ip), vehicle: Klucel (hydroxypropylcellulose) (HPC)): 101 % of control

CCC(=O)Sc1ccccc1C(=O)Nc1ccc(Cl)cc1
T/C (dose: 50.0 mg/kg/injection, schedule: Q07DX002 (ip), vehicle: saline with Tween-80): 120 % of control
T/C (dose: 100.0 mg/kg/injection, schedule: Q07DX002 (ip), vehicle: saline with Tween-80): 104 % of control
T/C (dose: 200.0 mg/kg/injection, schedule: Q07DX002 (ip), vehicle: saline with Tween-80): 114 % of control
T/C (dose: 400.0 mg/kg/injection, schedule: Q07DX002 (ip), vehicle: saline with Tween-80): 59 % of control
